Assay results taken from patent US8501215B2, “Injectable multimodal polymer depot compositions and uses thereof” (priority 2002, dated 2013).
Counter-ions that a name gives are not always drawn.

Experiments:
[1] = cited from earlier work
[2] = Saturation concentration of bupivacaine hydrochloride in de-ionized water; assay type: physicochemical
Experimental: Bupivacaine hydrochloride (Sigma-Aldrich Corporation, St. Louis, Mo.) was dissolved in de-ionized (DI) water at a concentration of 40 mg/ml (saturation). A calculated amount of sodium hydroxide (in the form of 1 N solution) was added to the solution and the pH of the final mixtures was adjusted to ten to precipitate the Bupivacaine base. The precipitated product was filtered, and further washed with DI water for at least three times. The precipitated product was dried at ca. 40° C. in vacuum for 24 hours.

Row | Structure (SMILES) | reported solubility in water [1] | concentration in de-ionized (DI) water (saturation) [2]
1 | CC(=O)OCC(COC(C)=O)OC(C)=O [triacetin] | 7.17 grams in 100 ml of water | 
2 | CCCCN1CCCCC1C(=O)Nc1c(C)cccc1C (centres unmarked) [Bupivacaine hydrochloride] |  | 40000 µg/mL
